From patent publication US20240368118A1, “CEREBLON BINDING COMPOUNDS, COMPOSITIONS THEREOF, AND METHODS OF TREATMENT THEREWITH” (CELGENE CORPORATION, priority 2021, published 2024)
Counter-ions that a name gives are not always drawn.

Molecular target: T1, AR (Homo sapiens, UniProt P10275)
T1 construct: endogenous in cells; host or cells: VCaP cells
T1 sequence (P10275 1-920): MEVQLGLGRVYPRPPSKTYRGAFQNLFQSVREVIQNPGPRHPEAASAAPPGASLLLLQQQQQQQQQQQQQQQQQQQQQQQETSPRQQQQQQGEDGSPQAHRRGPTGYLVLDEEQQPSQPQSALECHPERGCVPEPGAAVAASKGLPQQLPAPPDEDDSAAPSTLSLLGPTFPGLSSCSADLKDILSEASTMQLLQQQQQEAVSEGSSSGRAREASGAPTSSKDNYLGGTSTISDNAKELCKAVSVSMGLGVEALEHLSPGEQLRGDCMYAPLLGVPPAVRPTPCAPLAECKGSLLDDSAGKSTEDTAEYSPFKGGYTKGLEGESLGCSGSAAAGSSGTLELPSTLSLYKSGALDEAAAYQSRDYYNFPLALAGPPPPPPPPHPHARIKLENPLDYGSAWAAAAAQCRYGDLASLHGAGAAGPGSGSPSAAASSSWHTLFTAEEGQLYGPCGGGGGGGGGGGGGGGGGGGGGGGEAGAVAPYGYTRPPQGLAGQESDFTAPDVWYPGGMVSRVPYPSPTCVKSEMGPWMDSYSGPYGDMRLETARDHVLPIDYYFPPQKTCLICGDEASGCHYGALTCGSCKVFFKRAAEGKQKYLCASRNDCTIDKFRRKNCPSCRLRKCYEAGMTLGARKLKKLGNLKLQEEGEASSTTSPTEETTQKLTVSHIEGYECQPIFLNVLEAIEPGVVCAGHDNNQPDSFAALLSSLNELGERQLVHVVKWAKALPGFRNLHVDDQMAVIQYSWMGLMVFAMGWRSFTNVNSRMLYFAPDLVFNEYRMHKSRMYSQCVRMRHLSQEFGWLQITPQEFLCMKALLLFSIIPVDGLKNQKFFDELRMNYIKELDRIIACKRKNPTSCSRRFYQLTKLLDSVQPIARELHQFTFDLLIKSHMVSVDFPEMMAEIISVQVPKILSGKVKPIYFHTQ
Assay: VCAP AR Degradation Assay
Format: cell-based
Details: VCaP cells, 24 h; for DC50: AR ELISA, concentration when AR level = 50% of DMSO control; for Ymin: lowest AR level normalized to DMSO control
Method: VCAP AR Degradation Assay. Test compounds were pre-dispensed into a Corning CellBind 96-well clear bottom plate (Cat #3300) using an acoustic dispenser to make a 10-point concentration series at 1:3 dilution for each compound. The final top concentration of each compound was 5 μM. DMSO at a final concentration of 0.1% was used as a control. VCaP cells cultured in DMEM with 8% fetal bovine serum (FBS) were seeded at 50K cells per well in a 200 μL volume into the compound plate and incubated at 37° C. in a C02 incubator for 24 h. The medium was carefully removed from the cells and the plate was placed on ice. One hundred μL of ice-cold 1× cell lysis buffer from Cell Signaling Technologies (Cat #9803) was added to each well of the cells and the plate was incubated at 4° C. on a shaker for 1 h. Fifteen μL of cell lysate was used for AR ELISA detection using a PathScan Total Sandwich AR ELISA kit (Cell Signaling Technology, Cat #12580). AR levels in compound-treated wells were normalized to that of DMSO control and expressed as percent of control (PoC) (y). A Four Parameter Logistic Model (Sigmoidal Dose-Response Model) was used to determine the compound's DC50, and EC50, using the following equation: […]
The lowest measured AR level normalized to DMSO control in response to compound treatment, termed Y value, was used to characterize the compound-mediated AR degradation efficiency.

| Ymin (given as numbers) | SMILES | DC50 [nM] | Ymin (class symbols) |
| --- | --- | --- | --- |
|  | C[C@@H]1C[C@H](CCO[C@H]2CC[C@H](N3C(=S)N(c4ccc(C#N)c(C(F)(F)F)c4)C(=O)C3(C)C)CC2)C[C@H](C)N1CC(=O)Nc1ccc(C2CCC(=O)NC2=O)cc1 (stereo partly drawn) [Cmpd 22, 2-((2R,4r,6S)-4-(2-((trans-4-(3-(4-Cyano-3-(trifluoromethyl)phenyl)-5,5-dimethyl-4-oxo-2-thioxoimidazolidin-1-yl)cyclohexyl)oxy)ethyl)-2,6-dimethylpiperidin-1-yl)-N-(4-(2,6-dioxopiperidin-3-yl)phenyl)acetamide hydrochloride] | ≤ 5 | * (0<Y≤20%) |
|  | CC1(C)C(=O)N(c2ccc(C#N)c(C(F)(F)F)c2)C(=S)N1[C@H]1CC[C@H](OCCN2CCN(CC(=O)Nc3ccc(C4CCC(=O)NC4=O)cc3)[C@@H](C(F)(F)F)C2)CC1 (stereo partly drawn) [Cmpd 23, 2-((R)-4-(2-((trans-4-(3-(4-Cyano-3-(trifluoromethyl)phenyl)-5,5-dimethyl-4-oxo-2-thioxoimidazolidin-1-yl)cyclohexyl)oxy)ethyl)-2-(trifluoromethyl)piperazin-1-yl)-N-(4-(2,6-dioxopiperidin-3-yl)phenyl)acetamide hydrochloride] | 5 to 15 | * (0<Y≤20%) |
| 11 % of DMSO control | C[C@@H]1C[C@H](CCO[C@H]2CC[C@H](N3C(=S)N(c4cnc(C#N)c(C(F)(F)F)c4)C(=O)C3(C)C)CC2)C[C@H](C)N1CC(=O)Nc1ccc(C2CCC(=O)NC2=O)cc1 (stereo partly drawn) [Cmpd 27, 2-((2R,4r,6S)-4-(2-(((trans)-4-(3-(6-Cyano-5-(trifluoromethyl)pyridin-3-yl)-5,5-dimethyl-4-oxo-2-thioxoimidazolidin-1-yl)cyclohexyl)oxy)ethyl)-2,6-dimethylpiperidin-1-yl)-N-(4-(2,6-dioxopiperidin-3-yl)phenyl)acetamide] | ≤ 5 |  |
| 20 % of DMSO control | CC1(C)C(=O)N(c2cnc(C#N)c(C(F)(F)F)c2)C(=S)N1[C@H]1CC[C@H](OCCN2CCN(CC(=O)Nc3ccc(C4CCC(=O)NC4=O)cc3)[C@@H](C(F)(F)F)C2)CC1 (stereo partly drawn) [Cmpd 28, 2-((R)-4-(2-(((trans)-4-(3-(6-Cyano-5-(trifluoromethyl)pyridin-3-yl)-5,5-dimethyl-4-oxo-2-thioxoimidazolidin-1-yl)cyclohexyl)oxy)ethyl)-2-(trifluoromethyl)piperazin-1-yl)-N-(4-(2,6-dioxopiperidin-3-yl)phenyl)acetamide] | ≤ 5 |  |
| 15 % of DMSO control | C[C@@H]1C[C@@H](CCO[C@H]2CC[C@H](N3C(=S)N(c4cnc(C#N)c(C(F)(F)F)c4)C(=O)C3(C)C)CC2)C[C@H](C)N1CC(=O)Nc1ccc(C2CCC(=O)NC2=O)cc1 (stereo partly drawn) [Cmpd 29, 2-((2R,4s,6S)-4-(2-(((trans)-4-(3-(6-Cyano-5-(trifluoromethyl)pyridin-3-yl)-5,5-dimethyl-4-oxo-2-thioxoimidazolidin-1-yl)cyclohexyl)oxy)ethyl)-2,6-dimethylpiperidin-1-yl)-N-(4-(2,6-dioxopiperidin-3-yl)phenyl)acetamide] | ≤ 5 |  |
| 20 % of DMSO control | CC1(C)C(=O)N(c2cnc(C#N)c(C(F)(F)F)c2)C(=S)N1[C@H]1CC[C@H](OCCCN2CCN(CC(=O)Nc3cccc(C4CCC(=O)NC4=O)c3)[C@@H](C(F)(F)F)C2)CC1 (stereo partly drawn) [Cmpd 32, 2-((R)-4-(3-(((trans)-4-(3-(6-Cyano-5-(trifluoromethyl)pyridin-3-yl)-5,5-dimethyl-4-oxo-2-thioxoimidazolidin-1-yl)cyclohexyl)oxy)propyl)-2-(trifluoromethyl)piperazin-1-yl)-N-(3-(2,6-dioxopiperidin-3-yl)phenyl)acetamide] | ≤ 5 |  |
| 17 % of DMSO control | CC1(C)C(=O)N(c2cnc(C#N)c(C(F)(F)F)c2)C(=S)N1[C@H]1CC[C@H](CCCN2CCN(CC(=O)Nc3ccc(C4CCC(=O)NC4=O)cc3)[C@@H](C(F)(F)F)C2)CC1 (stereo partly drawn) [Cmpd 33, 2-((R)-4-(3-((trans)-4-(3-(6-Cyano-5-(trifluoromethyl)pyridin-3-yl)-5,5-dimethyl-4-oxo-2-thioxoimidazolidin-1-yl)cyclohexyl)propyl)-2-(trifluoromethyl)piperazin-1-yl)-N-(4-(2,6-dioxopiperidin-3-yl)phenyl)acetamide] | 5 to 15 |  |
| 12 % of DMSO control | CC1(C)C(=O)N(c2cnc(C#N)c(C(F)(F)F)c2)C(=S)N1[C@H]1CC[C@H](OCCCN2CCN(CC(=O)Nc3ccc(C4CCC(=O)NC4=O)cc3)[C@@H](C(F)(F)F)C2)CC1 (stereo partly drawn) [Cmpd 34, 2-((R)-4-(3-(((trans)-4-(3-(6-Cyano-5-(trifluoromethyl)pyridin-3-yl)-5,5-dimethyl-4-oxo-2-thioxoimidazolidin-1-yl)cyclohexyl)oxy)propyl)-2-(trifluoromethyl)piperazin-1-yl)-N-(4-(2,6-dioxopiperidin-3-yl)phenyl)acetamide] | ≤ 5 |  |

| SMILES | Ymin (given as numbers) | DC50 [nM] | Ymin (class symbols) |
| --- | --- | --- | --- |
| C[C@@H]1CN(CCCC[C@H]2CC[C@H](N3C(=S)N(c4ccc(C#N)c(C(F)(F)F)c4)C(=O)C3(C)C)CC2)C[C@H](C)N1CC(=O)Nc1cccc(C2CCC(=O)NC2=O)c1 (stereo partly drawn) [Cmpd 24, 2-((2R,6S)-4-(4-((trans)-4-(3-(4-Cyano-3-(trifluoromethyl)phenyl)-5,5-dimethyl-4-oxo-2-thioxoimidazolidin-1-yl)cyclohexyl)butyl)-2,6-dimethylpiperazin-1-yl)-N-(3-(2,6-dioxopiperidin-3-yl)phenyl)acetamide] | 15 % of DMSO control | ≤ 5 |  |
| C[C@@H]1CN(CCCC[C@H]2CC[C@H](N3C(=S)N(c4ccc(C#N)c(C(F)(F)F)c4)C(=O)C3(C)C)CC2)C[C@H](C)N1CC(=O)Nc1cccc(N2CCC(=O)NC2=O)c1 [Cmpd 25, 2-((2R,6S)-4-(4-((trans)-4-(3-(4-Cyano-3-(trifluoromethyl)phenyl)-5,5-dimethyl-4-oxo-2-thioxoimidazolidin-1-yl)cyclohexyl)butyl)-2,6-dimethylpiperazin-1-yl)-N-(3-(2,4-dioxotetrahydropyrimidin-1(2H)-yl)phenyl)acetamide] | 24 % of DMSO control | 5 to 15 |  |
| C[C@@H]1CN(CCCC[C@H]2CC[C@H](N3C(=S)N(c4ccc(C#N)c(C(F)(F)F)c4)C(=O)C3(C)C)CC2)C[C@H](C)N1CC(=O)Nc1ccc(N2CCC(=O)NC2=O)cc1 [Cmpd 26, 2-((2R,6S)-4-(4-((trans)-4-(3-(4-Cyano-3-(trifluoromethyl)phenyl)-5,5-dimethyl-4-oxo-2-thioxoimidazolidin-1-yl)cyclohexyl)butyl)-2,6-dimethylpiperazin-1-yl)-N-(4-(2,4-dioxotetrahydropyrimidin-1(2H)-yl)phenyl)acetamide] | 25 % of DMSO control | 5 to 15 |  |
| C[C@@H]1CN(CCCC[C@H]2CC[C@H](N3C(=S)N(c4ccc(C#N)c(C(F)(F)F)c4)C(=O)C3(C)C)CC2)C[C@H](C)N1CC(=O)Nc1ccc(C2CCC(=O)NC2=O)cc1 (stereo partly drawn) [Cmpd 30, 2-((2R,6S)-4-(4-((trans)-4-(3-(4-Cyano-3-(trifluoromethyl)phenyl)-5,5-dimethyl-4-oxo-2-thioxoimidazolidin-1-yl)cyclohexyl)butyl)-2,6-dimethylpiperazin-1-yl)-N-(4-(2,6-dioxopiperidin-3-yl)phenyl)acetamide] | 20 % of DMSO control | ≤ 5 |  |
| CC1(C)C(=O)N(c2ccc(C#N)c(C(F)(F)F)c2)C(=S)N1[C@H]1CC[C@H](OCCCN2CCN(CC(=O)Nc3cccc(C4CCC(=O)NC4=O)c3)[C@@H](C(F)(F)F)C2)CC1 (stereo partly drawn) [Cmpd 31, 2-((R)-4-(3-(((trans)-4-(3-(4-Cyano-3-(trifluoromethyl)phenyl)-5,5-dimethyl-4-oxo-2-thioxoimidazolidin-1-yl)cyclohexyl)oxy)propyl)-2-(trifluoromethyl)piperazin-1-yl)-N-(3-(2,6-dioxopiperidin-3-yl)phenyl)acetamide] | 21 % of DMSO control | ≤ 5 |  |
